The test system of experiment [1] is orientation hypermotility. Kind of experiment: Sedative action: reduction of orientation hypermotility induced by a new environment. Particulars: for ED50: po, 0.5 h, read-out: Sedative action (mouse) ED50. The class given is in vivo, female NMRI mice. The procedure: The test substances were administered orally to groups comprising three female NMRI mice each. The orientation hypermotility induced by a new environment is determined photoelectrically, 30 minutes after administration of the substance, over a period of 30 minutes.
The ED50, ie. the dose which produces 50% reduction in orientation hypermotility compared to untreated control animals, was determined.

For experiment [2], the system named is reserpine-induced hypothermia. Kind of experiment: Antidepressant action: inhibition of reserpine-induced hypothermia. The format is in vivo, male mice (Swiss). Particulars: for ED50: po, read-out: Antidepressant action (mouse) ED50. How it is done:
Antidepressants produce a dose-dependent inhibition of this hypothermia. The test substances were administered orally 60 minutes before reserpine.

The mark [3] stands for this setting: mouse, administered orally, 30 min after administration, over 30 min, 50% reduction in orientation hypermotility.
The mark [4] stands for this setting: mouse, administered orally 60 minutes before reserpine (2.15 mg/kg s.c.), 50% inhibition of hypothermia.

Read-outs that look alike come from different tables or passages of the source.

By ED50 is commonly meant the dose that gives a 50% effect, or the effect in half of the subjects. Turning to `CC(=CC#N)CN1C(=O)c2ccccc2S1(=O)=O` [Example 1, 3-(2,3-dihydro-1,1-dioxido-3-oxo-1,2-benzisothiazol-2-yl)-1-cyano-2-methylprop-1-ene], the ED50 in experiment [1] (setting [3]) stood at 50 mg/kg; in experiment [2] (setting [4]), 3.5 mg/kg.
The like results for `CC(=CC#N)CN1C(=O)c2c(Cl)cccc2S1(=O)=O` [Example 4, 3-(2,3-Dihydro-4-chloro-1,1-dioxido-3-oxo-1,2-benzisothiazol-2-yl)-1-cyano-2-methylprop-1-ene] were, in that order, 52 mg/kg and 3.1 mg/kg.
On to `CC(=CC#N)CN1C(=O)c2cc(Cl)ccc2S1(=O)=O` [Example 6, 3-(2,3-Dihydro-5-chloro-1,1-dioxido-3-oxo-1,2-benzisothiazol-2-yl)-1-cyano-2-methylprop-1-ene], for which the ED50 in experiment [1] (setting [3]) turned out to be 100 mg/kg; in experiment [2] (setting [4]), 1.1 mg/kg.
For `CC(=CC#N)CN1C(=O)c2ccccc2C1=O` [Example 11, 3-(Phthalimid-2-yl)-1-cyano-2-methylprop-1-ene], the figures for the ED50 in experiment [1] (setting [3]) and in experiment [2] (setting [4]) were 68 mg/kg and 18.9 mg/kg, respectively.
As for `CC(=CC#N)CN1Cc2ccccc2C1=O` [Example 12, 3-(Phthalimidin-2-yl)-1-cyano-2-methylprop-1-ene], the median effective dose (ED50) in experiment [1] (setting [3]) amounted to 49 mg/kg; in experiment [2] (setting [4]), 11.4 mg/kg.
For `CC(=CC#N)CCN1C(=O)c2ccccc2C1=O` [Example 18, 4-(Phthalimid-2-yl)-1-cyano-2-methylbut-1-ene], the values for the median effective dose (ED50) in experiment [1] (setting [3]) and in experiment [2] (setting [4]) were 29 mg/kg and 4.5 mg/kg, respectively.
`CN(C)CCCN1c2ccccc2CCc2ccccc21` [Imipramine, reference compound]: the ED50 in experiment [1] (Mus musculus) was around 100 mg/kg; in experiment [2] (Mus musculus) it was 6.8 mg/kg.
In the case of `O=C1NCCCC1N1C(=O)c2ccccc2S1(=O)=O` (stereo not drawn) [Supidimide, 3-(2,3-dihydro-1,1-dioxido-3-oxo-1,2-benzisothiazol-2-yl)-2-oxopiperidine, reference compound], the “weak suppressant effect on the central nervous system (in words)” value in experiment [1] (known, and also found in the test for sedative action) is listed as “weak suppressant effect on the central nervous system”. Also, the ED50 turned out to be 277 mg/kg in experiment [1] (setting [3]) and 2150 mg/kg in experiment [2] (setting [4]). In addition, the “antidepressant action (in words)” value in experiment [2] (up to the maximum test dose of 2,150 mg/kg, administered orally) is on record as “completely absent”.

Source of the values: patent publication US4563474A, “Phthalimides and thienopyrrols as drugs” (BASF Aktiengesellschaft, priority 1982, dated 1986).
